Assays:
[1] = MTT cytotoxicity assay, LO2; format: cell-based; settings: human, normal cell line LO2, MTT, 0.19–100 μM
Protocol: (§1) Reagent and cells. Adenocarcinomic human alveolar basal epithelial (A549) and human hepatoma (HepG2) cancer cell lines, immortalized normal human liver (LO2), human bronchial epithelial (BEAS-2B), and fibroblast-like CCD19Lu cells were purchased from [NT], Manassas, VA, USA). The cells were cultured in RPMI-1640 medium supplemented with 10% fetal bovine serum and antibiotics: Penicillin (50 U/Ml) and streptomycin (50 μg/mL; Invitrogen, Paisley, Scotland, UK). All cells were incubated at 37 °C in a 5% humidified CO2 incubator). All test compounds were dissolved in DMSO at a final concentration of 50 mM and stored at -20 °C before use. […] Briefly, 5 × 10^3 cells per well were seeded in 96-well plates before drug treatments. […] Cells without drug treatment were used as controls. Subsequently, 10 μL of 5 mg/mL MTT solution was added to each well and incubated at 37 °C for 4 h, followed by the addition of 100 μL solubilization buffer (12 mM HCl in a solution of 10% SDS) and overnight incubation. The absorbance, A570 nm, was then determined in each well on the next day. The percentage cell viability was calculated using the expression: % Viability = Atreated/ Acontrol × 100, and was given as cytotoxicity in Table 3.

[2] = MTT cytotoxicity assay, A549; format: cell-based; settings: human, cancer cell line A549, MTT, 0.19–100 μM
Protocol: as §1

[3] = MTT cytotoxicity assay, Hep-G2; format: cell-based; settings: human, cancer cell line Hep-G2, MTT, 0.19–100 μM
Protocol: as §1

[4] = MTT cytotoxicity assay, BEAS-2B; format: cell-based; settings: human, normal cell line BEAS-2B, 0.19–100 μM
Protocol: as §1

[5] = LO2 cells (immortalized normal human liver)
[6] = BEAS-2B cells (human bronchial epithelial)

SMILES | IC50 at 72 h [1] | IC50 at 72 h [2] | IC50 at 72 h [3] | melting point | IC50 at 72 h [4] | IC50 at 72 h [1, 5] | IC50 at 72 h ([3]; HepG2 cells (human hepatoma)) | IC50 at 72 h [4, 6]
C=C1CC23CCC4C(C)(C(=O)O)CCCC4(C)C2=CC(OC)C1C3 (stereo not drawn) [Compound 1, 12α-methoxy-ent-kaur-9(11),16-dien-19-oic acid] | > 100 µM | > 100 µM | 27.3 ± 1.9 µM | 184 to 186 °C | > 100 µM | – | – | –
C[C@@]12CCC[C@@](C)(C(=O)O)[C@H]1CC[C@@]13C[C@@H](CC[C@H]12)[C@](C)(O)C3 [Compound 2, (16R)-hydroxy-ent-kauran-19-oic acid] | > 100 µM | > 100 µM | > 100 µM | – | > 100 µM | – | – | –
C=C1C2CCC3(O)C4(C)CCCC(C)(C(=O)O)C4CCC3(C2)C1OC(=O)C(C)=CC (stereo not drawn) [Compound 3, 9β-hydroxy-15α-angeloyloxy-ent-kaur-16-en-19-oic acid] | – | > 100 µM | – | – | – | 57.2 ± 1.2 µM | 24.7 ± 2.8 µM | 89.9 ± 2 µM
C=C1C2CCC3(O)C4(C)CCCC(C)(C(=O)OC)C4CCC3(C2)C1OC(=O)C(C)=CC (stereo not drawn) [Compound 4, methyl-9β-hydroxy-15α-angeloyloxy-ent-kaur-16-en-19-oate] | – | > 100 µM | – | – | – | > 100 µM | > 100 µM | > 100 µM
CC=C(C)C(=O)OC1C23CCC4C(C)(C(=O)O)CCCC4(C)C2CCC(C3)C12CO2 (stereo not drawn) [Compound 5, 15α-angeloyloxy-16β,17-epoxy-ent-kauran-19-oic acid] | – | 30.7 ± 1.7 µM | – | 242 to 243 °C | – | > 100 µM | > 100 µM | > 100 µM
C=C1C[C@@]23CC[C@@H]4[C@](C)(C(=O)O)CCC[C@@]4(C)C2=CC[C@@H]1C3 [Compound 6, ent-kaur-9(11),16-dien-19-oic acid] | > 100 µM | > 100 µM | > 100 µM | – | > 100 µM | – | – | –
CO[C@@]1(C)C[C@@]23CC[C@@H]4[C@](C)(C(=O)O)CCC[C@@]4(C)C2=CC[C@@H]1C3 [Compound 6a] | – | > 100 µM | – | – | – | > 100 µM | > 100 µM | > 100 µM
C[C@@H]1C[C@@]23CC[C@@H]4[C@](C)(C(=O)O)CCC[C@@]4(C)C2=CC[C@@H]1C3 [Compound 6b, ent-kaur-9(11)-en-19-oic acid] | – | > 100 µM | – | – | – | > 100 µM | > 100 µM | > 100 µM
C=C1C2CCC3C4(C)CCCC(C)(C(=O)O)C4CCC3(C2)C1OC(=O)C(C)=CC (stereo not drawn) [Compound 7, 15α-angeloyloxy-ent-kaur-16-en-19-oic acid] | – | > 100 µM | – | – | – | > 100 µM | > 100 µM | > 100 µM
C=C1C[C@@]23CC[C@@H]4C(C)(C)CCC[C@@]4(C)C2=CC(=O)C1C3 [Compound 9, ent-kaur-9(11),16-dien-12-one] | – | > 100 µM | – | – | – | 75.3 ± 2.8 µM | > 100 µM | > 100 µM
C=C1CC23CCC4C(C)(C(=O)OC)CCCC4(C)C2CCC1C3 (stereo not drawn) [Compound 10, methyl-ent-kaur-16-en-19-oate] | – | > 100 µM | – | – | – | > 100 µM | > 100 µM | > 100 µM
C=C1CC23CCC4C(C)(C(=O)O)CCCC4(C)C2CCC1C3 (stereo not drawn) [Compound 11, ent-kaur-16-en-19-oic acid] | – | > 100 µM | – | – | – | > 100 µM | > 100 µM | > 100 µM
CC[C@H](/C=C/[C@@H](C)[C@H]1CC[C@H]2[C@@H]3CC=C4C[C@@H](O)CC[C@]4(C)[C@H]3CC[C@]12C)C(C)C [Compound 14, stigmasta-5,22(E)-dien-3β-ol] | > 100 µM | > 100 µM | > 100 µM | – | > 100 µM | – | – | –
C=C1C2CCC3C4(C)CCCC(C)(C(=O)OC)C4CCC3(C2)C1OC(=O)C(C)=CC (stereo not drawn) [Compound 17, methyl-15α-angeloyloxy-ent-kaur-16-en-19-oate] | – | > 100 µM | – | – | – | > 100 µM | > 100 µM | > 100 µM
C=C1CC23CCC4C(C)(C(=O)O)CCCC4(C)C2=CC(=O)C1C3 (stereo not drawn) [Compound 18, 12-oxo-ent-kaur-9(11),16-dien-19-oic acid] | 30 ± 1.7 µM | 80.5 ± 1.8 µM | 81.3 ± 0.3 µM | – | 38.6 ± 2.5 µM | – | – | –
CC(=O)O[C@H]1C(=O)[C@@]2(C)[C@H]([C@H](OC(=O)c3ccccc3)[C@]3(O)C[C@H](OC(=O)[C@H](O)[C@@H](NC(=O)c4ccccc4)c4ccccc4)C(C)=C1C3(C)C)[C@]1(OC(C)=O)CO[C@@H]1C[C@@H]2O [Paclitaxel, reference compound] | – | 0.0033 µM | – | – | – | < 0.1 µM | 0.19 µM | < 0.1 µM

— paper PMC6321058, “Crystal Structures and Cytotoxicity of ent-Kaurane-Type Diterpenoids from Two Aspilia Species” (Molecules, 2018)
